In PubChem BioAssay (NCI):
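Exposure lasted 48 hours, with cells grown in 96-well plates and compounds tested at five concentrations. GI50 is the concentration that inhibits growth by half. At the TGI there is no net growth.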

Legend:
Assay in all cases: NCI anticancer screen, dose series, 48 h
SK-MEL-5 melanoma = test system: SK-MEL-5 melanoma
ACHN renal = test system: ACHN renal
HT29 colon = test system: HT29 colon
TK-10 renal = test system: TK-10 renal
HL-60(TB) leukemia = test system: HL-60(TB) leukemia
M14 melanoma = test system: M14 melanoma
SF-268 CNS = test system: SF-268 CNS
NCI/ADR-RES ovarian = test system: NCI/ADR-RES ovarian
A549 NSCLC = test system: A549 NSCLC
NCI-H226 lung = test system: NCI-H226 lung
OVCAR-4 ovarian = test system: OVCAR-4 ovarian
LOX IMVI melanoma = test system: LOX IMVI melanoma
SK-OV-3 ovarian = test system: SK-OV-3 ovarian

SMILES | TGI (SK-MEL-5 melanoma) [µM] | TGI (ACHN renal) [µM] | TGI (HT29 colon) [µM] | TGI (TK-10 renal) [µM] | TGI (HL-60(TB) leukemia) [µM] | TGI (M14 melanoma) [µM] | TGI (SF-268 CNS) [µM] | TGI (NCI/ADR-RES ovarian) [µM] | TGI (A549 NSCLC) [µM] | TGI (NCI-H226 lung) [µM] | TGI (OVCAR-4 ovarian) [µM] | TGI (LOX IMVI melanoma) [µM] | TGI (SK-OV-3 ovarian) [µM] | GI50 (SK-OV-3 ovarian) [nM] | GI50 (SK-MEL-5 melanoma) [nM] | GI50 (ACHN renal) [nM] | GI50 (TK-10 renal) [µM] | GI50 (NCI/ADR-RES ovarian) [nM] | GI50 (NCI-H226 lung) [nM] | GI50 (OVCAR-4 ovarian) [µM]
CCOC(=O)c1c(NC(=S)Nc2ccc(C)cc2)sc2c1CCN(C)C2 | > 100 | > 100 | > 100 | > 100 | > 100 | > 100 | > 100 | > 100 | > 100 | > 100 | – | – | – | – | – | – | – | – | – | –
CNc1ccc2c(c1)Cc1ccccc1-2 | 74.7 | > 100 | > 100 | 93.8 | > 100 | 71.3 | > 100 | > 100 | 56.2 | > 100 | > 100 | > 100 | – | – | – | – | – | – | – | –
CCOC(=O)C(NC(=O)c1ccc(N=NN(C)C)cc1)C(C)C (stereo not given) | > 100 | > 100 | > 100 | > 100 | > 100 | > 100 | > 100 | – | > 100 | > 100 | > 100 | > 100 | > 100 | – | – | – | – | – | – | –
C=C1CC=CC(C)(C)C1C/C=C(\C)C(O)CBr (stereo not given) | > 100 | > 100 | > 100 | > 100 | > 100 | > 100 | > 100 | 63.2 | > 100 | > 100 | > 100 | 53.5 | > 100 | – | – | – | – | – | – | –
COc1cc(/C=C/c2cc(=O)cc(/C=C/c3ccc(O)c(OC)c3)o2)ccc1O | > 100 | > 100 | > 100 | > 100 | > 100 | > 100 | > 100 | > 100 | > 100 | 98.3 | > 100 | > 100 | > 100 | – | – | – | – | – | – | –
CCN(CC(=O)O)CC(=O)O | > 100 | > 100 | > 100 | > 100 | – | > 100 | > 100 | > 100 | > 100 | > 100 | > 100 | > 100 | > 100 | – | – | – | – | – | – | –
C/C(=N\Nc1nc2ccccc2s1)c1cccnn1 | > 100 | 17 | > 100 | – | – | 88.7 | 20.1 | 8.69 | > 100 | 59.3 | > 100 | – | 52.3 | – | – | – | – | – | – | –
O=C1c2c(c3c4ccc(Br)cc4oc3c3[nH]c4ccccc4c23)C(=O)N1O | 3.27 | > 100 | – | > 100 | – | – | – | > 100 | – | > 100 | – | – | > 100 | 2840 | 1480 | 1110 | 4.67 | 2640 | 2340 | –
NS(=O)(=O)c1nnc(NSc2ccc([N+](=O)[O-])cc2)s1 | > 100 | > 100 | – | > 100 | – | > 100 | > 100 | > 100 | > 100 | > 100 | > 100 | > 100 | > 100 | – | – | – | – | – | – | –
c1ccc(-c2ccc(N=NN3CCCC3)cc2)cc1 | > 100 | > 100 | – | > 100 | – | > 100 | > 100 | > 100 | – | > 100 | > 100 | > 100 | > 100 | – | – | – | – | – | – | –
COC(=O)[C@H]1C=C[C@H](OC2OC(COC(C)=O)C(OC(C)=O)C(OC(C)=O)C2OC(C)=O)n2c(=O)n(-c3ccccc3)c(=O)n21 (stereo not given in full) | > 22.4 | 3.08 | 8.58 | 15.4 | > 100 | 9.64 | > 47.1 | 61.8 | 35.4 | 20.5 | 32.9 | – | 32.6 | – | – | – | – | – | – | 4.14
Cc1cccc(NC(Nc2cccc(C)c2)=C(C(Cl)=C(Cl)Cl)[N+](=O)[O-])c1 | 19.6 | 43.1 | > 54 | 28.5 | – | > 52 | 30.6 | 35.4 | > 68 | 22.5 | > 82 | 28.7 | > 100 | – | – | – | – | – | – | –
O=C(NN1C(=O)CSC1c1ccc(Cl)c(Cl)c1)c1ccncc1 (stereo not given) | > 100 | > 100 | > 100 | > 100 | > 100 | > 100 | > 100 | – | > 100 | – | > 100 | > 100 | > 100 | – | – | – | – | – | – | –
COc1ccc(N2C(=O)C3c4[nH]c5ccccc5c4C4C(C)CCCC4C3C2=O)cc1 (stereo not given) | > 100 | > 100 | > 100 | > 100 | – | > 100 | > 100 | > 100 | > 100 | > 100 | > 100 | > 100 | > 100 | – | – | – | – | – | – | –
C(=N/Nc1ccc(-c2nc3ccccc3[nH]2)cc1)/c1c(-c2ccccc2)[nH]c2ccccc12 | > 100 | > 100 | – | > 100 | 1.06 | > 100 | > 100 | 17.4 | – | 6.47 | > 100 | > 100 | 20.5 | – | – | – | – | – | – | –
OC(c1ccco1)C(F)(F)c1nc2ccccc2o1 (stereo not given) | > 100 | > 100 | > 100 | > 100 | > 100 | > 100 | > 100 | > 100 | – | > 100 | > 100 | > 100 | > 100 | – | – | – | – | – | – | –
NNC(=O)c1cccc2c1Oc1ccccc1S2 | > 100 | > 100 | > 100 | > 100 | > 100 | > 100 | > 100 | > 100 | – | > 100 | > 100 | > 100 | > 100 | – | – | – | – | – | – | –
COC(=O)c1sc2ncc3c(c2c1N)CC(C)CC3 (stereo not given) | > 100 | > 100 | > 100 | > 100 | – | > 100 | > 100 | > 100 | > 100 | > 100 | > 100 | > 100 | > 100 | – | – | – | – | – | – | –
